Reference: BindingDB's records for doi:10.1021/jm990205m (University of Michigan, 2000)

Assay: Antiviral activity was tested in cells acutely infected with HIV-1 Reverse transcriptase

Structure (SMILES)	IC50
CN1N=C(N)c2cn(C3O[C@H](CO)[C@H]4O[C@H]34)c3ncnc1c23 (stereo partly specified) [[4-(3-Amino-5-methyl-5H-1,4,5,6,8-pentaaza-acenaphthylen-1-yl)-3,6-dioxa-bicyclo[3.1.0]hex-2-yl]-methanol(2',3'-epoxyTCN)]	> 100 µM

Assay: Antiviral activity was tested in cells acutely infected with HIV-1 RT (reverse transcriptase)

Structure (SMILES)	IC50
C[C@H]1OC(n2cc3c4c(ncnc42)N(C)N=C3N)[C@H](O)[C@@H]1O (stereo partly specified)	> 100 µM
CN1N=C(N)c2cn([C@@H]3O[C@H](CO)C[C@H]3O)c3ncnc1c23	> 100 µM

Further lines, results first:

IC50	Structure (SMILES)
100 µM	CN1N=C(N)c2cn(C3C=C[C@@H](CO)O3)c3ncnc1c23 (stereo partly specified) [[5-(3-Amino-5-methyl-5H-1,4,5,6,8-pentaaza-acenaphthylen-1-yl)-2,5-dihydro-furan-2-yl]-methanol]
21 µM	CN1N=C(N)c2cn([C@H]3CC[C@@H](CO)O3)c3ncnc1c23
> 100 µM	CN1N=C(N)c2cn(C3C[C@@H](O)[C@@H](CO)O3)c3ncnc1c23 (stereo partly specified) [5-(3-Amino-5-methyl-5H-1,4,5,6,8-pentaaza-acenaphthylen-1-yl)-2-hydroxymethyl-tetrahydro-furan-3-ol]
